In one assay the target is T1, recombinant Aurora A (Homo sapiens, UniProt O14965).
T1 construct: purchased Upstate, Lake Placid, N.Y
T1 sequence (O14965 1-403): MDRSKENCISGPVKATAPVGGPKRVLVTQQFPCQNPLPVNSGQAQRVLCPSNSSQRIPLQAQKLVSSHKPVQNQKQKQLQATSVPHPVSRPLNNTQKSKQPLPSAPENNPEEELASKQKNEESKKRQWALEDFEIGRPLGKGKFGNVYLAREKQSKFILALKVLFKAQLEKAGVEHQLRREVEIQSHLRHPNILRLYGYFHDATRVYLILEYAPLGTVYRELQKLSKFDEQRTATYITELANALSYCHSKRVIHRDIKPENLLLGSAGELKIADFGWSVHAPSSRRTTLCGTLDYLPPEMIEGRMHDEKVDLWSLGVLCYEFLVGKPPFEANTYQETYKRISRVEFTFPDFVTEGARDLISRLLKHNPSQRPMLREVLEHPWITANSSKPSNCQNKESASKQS
In words: PanVera Z'-Lyte Aurora kinase assay. The class given is biochemical. Conditions: Z'-Lyte Ser/Thr 1 peptide 2 μM, ATP 10 μM, 1 h. The procedure:
Compounds 7-14 above were tested for their potency against recombinant Aurora A (Upstate, Lake Placid, N.Y.) using the PanVera Z'-Lyte kinase assay kit—Ser/Thr 1 peptide (Invitrogen, Carlsbad, Calif.). Assays were carried out in kinase assay buffer (50 mM HEPES, pH 7.5, 10 mM MgCl2, 5 mM EGTA, 0.05% Brij-35, 2 mM DTT). Test compounds were initially dissolved in DMSO at 100× the highest tested concentration, then serially diluted to 4× test concentrations in kinase assay buffer. Next, Aurora A (final concentration 200-500 ng/mL), Z′-Lyte Ser/Thr 1 peptide (final concentration 2 μM) and ATP (final concentration 10 μM) were added according to the manufacturer's instructions. Assays were carried out in half-area 96-well white polystyrene assay plates (Corning, Corning, N.Y.) in a final volume of 20 μL. The reaction was allowed to proceed for 1 h at room temperature in the dark, at which point the development reagent and stop reagent were added according to the manufacturer's instructions. Coumarin (Ex. 400 nm, Em. 465 nm) and fluorescein (Ex. 400 nm, Em. 565 nm) fluorescence values were measured on a SpectraFluor Plus plate reader (Tecan, Durham, N.C.). The emission ratio (coumarin/fluorescein) was determined and used to calculate the percent phosphorylation for each well. Wells containing substrate but no kinase and wells containing a phosphopeptide control were used to set 0% and 100% phosphorylation values, respectively. Typically 20-40% of the substrate was phosphorylated in wells without inhibitor. Dose-response curves of relative Aurora A activity vs. inhibitor concentration were plotted with Grafit (Erithacus Software, Horley, Surrey, UK) and used to calculate IC50 values.

The next assay has as its system HCT 116 Cells. The experiment in a line: Aurora kinase whole cell cytotoxicity assay: Sulforhodamine B. The class given is cell-based. Conditions: Homo sapiens, HCT116, SRB staining, 96 hours incubation. Here is the method: Human tumour-derived cell lines, HCT116 or MCF7 (ATCC) were plated in a 96 well plate in DMEM containing 10% fetal bovine serum and 2 mM L-glutamine at a density of 500 HCT116 cells or 1,000 MCF7 cells per well and incubated at 37° C., 5% CO2, for 24 hours prior to the addition of experimental compounds. Compounds were added using the dilution series indicated to duplicate plates and the cells were incubated in media plus compound for 96 hours. An additional plate was fixed in 10% TCA at the time of the addition of compound to provide a measurement of the cell population at time zero, the time of drug addition. Following the 96 hour incubation, cells were fixed in situ by gently aspirating off the culture media and then adding 50 ul of ice cold 10% TCA per well and incubation at 4° C. for 60 minutes. The plates were washed with tap water five times and allowed to air dry for 5 minute. 50 ul of a 0.4% (w/v) Sulforhodamine B solution in 1% (v/v) acetic acid was added per well and the cells were incubated for 30 minutes at room temperature. Following staining, plates were washed four times with 1% acetic acid to remove any unbound dye and then allowed to air dry for 5 minutes. The stain was solubilized with 100 ul of 10 mM Tris pH 10.5 per well and placed on an orbital rotator for 5 minutes. The absorbance was read at 570 nm. Percentage growth was calculated using the absorbance readings from the time zero plate (Tz) and the dilution series plate […] which included a column of cells grown in media without compound as a control (C) using the formulas: [(Ti−Tz)/(C−Tz)]×100 for concentrations for which Ti>/=Tz [(Ti−Tz)/Tz]×100 for concentrations for which Ti<Tz.
Three dose response parameters were calculated for each experimental agent. Growth inhibition of 50% (GI50) was calculated from [(Ti−Tz)/(C−Tz)]×100=50, which was the drug concentration resulting in a 50% reduction in the net protein increase (as measured by SRB staining) in control cells during the drug incubation. The drug concentration resulting in total growth inhibition (TGI) was calculated from Ti=Tz. The LC50 (concentration of drug resulting in a 50% reduction in the measured protein at the end of the drug treatment as compared to that at the beginning) indicating a net loss of cells following treatment ws calculated from [(Ti−Tz)/Tz]×100=−50. Values are calculated for each of these three parameters if the level of activity was reached; however, if the effect was not reached or was exceeded, the value for that parameter is expressed as greater or less than the maximum or minimum concentration tested.
(The SRB assay estimates cell density from bound dye.)

The structures appear in SMILES notation.

For orientation: IC50 means the concentration at which inhibition is half-maximal. The term GI50 denotes the concentration that inhibits growth by half.

Take `COC(=O)c1nc(Sc2ccc(NC(=O)C3CC3)cc2)nc(Nc2cc(C)[nH]n2)c1N` [Compound 7, Methyl 2-(4-cyclopropanecarboxamidophenylsulfanyl)-5-amino-6-(5-methylpyrazol-3-ylamino)-4-pyrimidinecarboxylate]: the IC50 on recombinant Aurora A was < 100 nM. The compound further registered a GI50 with HCT 116 Cells of 100 to 1000 nM.

Turning to `Cc1cc(Nc2nc(Sc3ccc(NC(=O)C4CC4)cc3)nc(C(=O)O)c2N)n[nH]1` [Compound 8, 2-(4-Cyclopropanecarboxamidophenylsulfanyl)-5-amino-6-(5-methylpyrazol-3-ylamino)-4-pyrimidinecarboxylic acid], the IC50 at recombinant Aurora A was < 100 nM.

In the case of `CNC(=O)c1nc(Sc2ccc(NC(=O)C3CC3)cc2)nc(Nc2cc(C)[nH]n2)c1N` [Compound 9, Methyl 2-(4-cyclopropanecarboxamidophenylsulfanyl)-5-amino-6-(5-methylpyrazol-3-ylamino)-4-pyrimidinecarboxamide], on recombinant Aurora A, the IC50 is < 100 nM.

`Cc1cc(Nc2nc(Sc3ccc(NC(=O)C4CC4)cc3)nc(C(=O)NCCN(C)C)c2N)n[nH]1` [Compound 12, N-[2-(N,N-dimethylamino)ethyl]-2-(4-cyclopropane-carboxamidophenylsulfanyl)-5-amino-6-(5-methylpyrazol-3-ylamino)-4-pyrimidine carboxamide]: on recombinant Aurora A, the IC50 was < 100 nM. The GI50 in the assay on HCT 116 Cells fell in the range of 1000 to 10000 nM.

For the compound `CCOC(=O)c1nc(S(=O)(=O)c2ccc(NC(=O)C3CC3)cc2)nc(Nc2cc(C)[nH]n2)c1N` [Compound 13, Ethyl 2-(4-cyclopropanecarboxamidophenylsulfonyl)-5-amino-6-(5-methylpyrazol-3-ylamino)-4-pyrimidinecarboxylate], the IC50 on recombinant Aurora A was < 100 nM.

Take `CCOC(=O)c1nc([S+]([O-])c2ccc(NC(=O)C3CC3)cc2)nc(Nc2cc(C)[nH]n2)c1N` (centres unmarked) [Compound 14, ethyl 2-(4-cyclopropane-carboxamidophenylsulfinyl)-5-amino-6-(5-methylpyrazol-3-ylamino)-4-pyrimidinecarboxylate]: the IC50 on recombinant Aurora A was < 100 nM.

For `Cc1cc(Nc2nc(Sc3ccc(NC(=O)C4CC4)cc3)nc(C(=O)NCCN3CCCCC3)c2N)n[nH]1` [Compound 17, N-(2-Piperidin-1-ylethyl) 2-(4-cyclopropanecarboxamidophenylsulfanyl)-5-amino-6-(5-methylpyrazol-3-ylamino)-4-pyrimidinecarboxamide], on recombinant Aurora A, the IC50 is < 100 nM. In the assay on HCT 116 Cells, this compound showed a GI50 of 100 to 1000 nM.

On to `Cc1cc(Nc2nc(Sc3ccc(NC(=O)C4CC4)cc3)nc(C(=O)OCCN3CCOCC3)c2N)n[nH]1` [Compound 18, 2-Morpholin-4-ylethyl 2-(4-cyclopropanecarboxamidophenylsulfanyl)-5-amino-6-(5-methylpyrazol-3-ylamino)-4-pyrimidinecarboxylate], for which, on recombinant Aurora A, the IC50 was < 100 nM. This compound also yielded a GI50 in the assay on HCT 116 Cells of 1000 to 10000 nM.

For the compound `Cc1cc(Nc2nc(Sc3ccc(NC(=O)C4CC4)cc3)nc(C(=O)OC3CCOCC3)c2N)n[nH]1` [Compound 19, Tetrahydro-2H-pyran-4-yl 2-(4-cyclopropanecarboxamidophenylsulfanyl)-5-amino-6-(5-methylpyrazol-3-ylamino)-4-pyrimidinecarboxylate], the IC50 on recombinant Aurora A was < 100 nM. The compound also yielded a GI50 in the assay with HCT 116 Cells of 100 to 1000 nM.

On to `CCOC(=O)c1nc(Nc2ccc(NC(C)=O)nc2)nc(Nc2cc(C)[nH]n2)c1N` [Compound 34, Ethyl 2-(6-acetylamido-3-pyridylamino)-5-amino-6-(5-methylpyrazol-3-ylamino)-4-pyrimidinecarboxylate], for which the IC50 at recombinant Aurora A fell in the range of 100 to 1000 nM.

Turning to `CCOC(=O)c1nc(Nc2ccc(NC(=O)C3CC3)cc2)nc(Nc2cc(C)[nH]n2)c1N` [Compound 36, Ethyl 2-({4-[(cyclopropylcarbonyl)amino]phenyl}amino)-5-amino-6-(5-methylpyrazol-3-ylamino)-4-pyrimidinecarboxylate], the IC50 at recombinant Aurora A was < 100 nM. This compound displayed a GI50 in the assay on HCT 116 Cells of 1000 to 10000 nM.

Take `COCCOC(=O)c1nc(Sc2ccc(NC(=O)C3CC3)cc2)nc(Nc2cc(C)[nH]n2)c1N` [Compound 40, 2-Methoxyethyl 2-(4-cyclopropanecarboxamidophenylsulfanyl)-5-amino-6-(5-methylpyrazol-3-ylamino)-4-pyrimidinecarboxylate]: the IC50 at recombinant Aurora A was < 100 nM. The compound also showed a GI50 with HCT 116 Cells of 100 to 1000 nM.

Consider `CSCCOC(=O)c1nc(Sc2ccc(NC(=O)C3CC3)cc2)nc(Nc2cc(C)[nH]n2)c1N` [Compound 41], for which the IC50 on recombinant Aurora A was < 100 nM. In the assay with HCT 116 Cells, this compound had a GI50 of 100 to 1000 nM.

Turning to `Cc1cc(Nc2nc(Sc3ccc(NC(=O)C4CC4)cc3)nc(C(=O)OC3CCCCC3)c2N)n[nH]1` [Compound 42, Cyclohexyl 2-(4-cyclopropanecarboxamidophenylsulfanyl)-5-amino-6-(5-methylpyrazol-3-ylamino)-4-pyrimidinecarboxylate], the IC50 on recombinant Aurora A is < 100 nM. In addition, the GI50 in the assay on HCT 116 Cells is 100 to 1000 nM.

As for `COCCNC(=O)c1nc(Sc2ccc(NC(=O)C3CC3)cc2)nc(Nc2cc(C)[nH]n2)c1N` [Compound 43, N-(2-Methoxyethyl) 2-(4-cyclopropanecarboxamidophenylsulfanyl)-5-amino-6-(5-methylpyrazol-3-ylamino)-4-pyrimidinecarboxamide], the IC50 at recombinant Aurora A is < 100 nM. Besides, in the assay on HCT 116 Cells, the GI50 fell in the range of 100 to 1000 nM.

Consider `Cc1cc(Nc2nc(Sc3ccc(NC(=O)C4CC4)cc3)nc(C(=O)N3CCOCC3)c2N)n[nH]1` [Compound 44, Morpholin-4-yl 2-(4-cyclopropanecarboxamidophenylsulfanyl)-5-amino-6-(5-methylpyrazol-3-ylamino)-4-pyrimidinecarboxamide], for which the IC50 on recombinant Aurora A is < 100 nM. The same compound yielded a GI50 in the assay with HCT 116 Cells of 1000 to 10000 nM.

Take `Cc1cc(Nc2nc(Sc3ccc(NC(=O)C4CC4)cc3)nc(C(=O)N3CCSCC3)c2N)n[nH]1` [Compound 45, Thiomorpholin-4-yl 2-(4-cyclopropanecarboxamidophenylsulfanyl)-5-amino-6-(5-methylpyrazol-3-ylamino)-4-pyrimidinecarboxamide]: the IC50 at recombinant Aurora A is < 100 nM. In addition, in the assay on HCT 116 Cells, the GI50 lay within 1000 to 10000 nM.

In the case of `Cc1cc(Nc2nc(Sc3ccc(NC(=O)C4CC4)cc3)nc(C(=O)OCCN(C)C)c2N)n[nH]1` [Compound 46, 2-Dimethylaminoethyl 2-(4-cyclopropanecarboxamidophenylsulfanyl)-5-amino-6-(5-methylpyrazol-3-ylamino)-4-pyrimidinecarboxylate], the IC50 on recombinant Aurora A is < 100 nM. In the assay with HCT 116 Cells, this compound displayed a GI50 of 100 to 1000 nM.

Regarding `Cc1cc(Nc2nc(Sc3ccc(NC(=O)C4CC4)cc3)nc(C(=O)Nc3ccccc3)c2N)n[nH]1` [Compound 60, N-Phenyl 2-(4-cyclopropanecarboxamidophenylsulfanyl)-5-amino-6-(5-methylpyrazol-3-ylamino)-4-pyrimidinecarboxamide], at recombinant Aurora A, the IC50 is 100 to 1000 nM.

Values taken from patent publication US8153630B2, “Kinase inhibitors” (Miikana Therapeutics, Inc., priority 2004, dated 2012).
